By IC50 is commonly meant the midpoint of a concentration-inhibition curve. One may read the melting point as the temperature of the solid-liquid transition.

Entries after “also recorded” stand apart in the source; their conditions may differ.

The subject of data set [1] is CQ resistant strain (7GB) of P. falciparum. Description: Antiplasmodial activity against CQ resistant strain. The class given is cell-based. The conditions noted are these: Plasmodium falciparum; values in brackets; 48 h incubation; read-out: IC50 values ± SE, CQ resistant strain (7GB) (converted). The procedure:
(§1) For compound screening, SYBR green I-based fluorescence assay was setup as described in literature. Sorbitol synchronized parasites were incubated under normal culture conditions at 2% hematocrit and 1% parasitemia in the absence or presence of increasing concentrations of the compounds. Chloroquine (CQ) was used as positive control, while 0.4% DMSO was used as the negative control.
(§2) We have studied the antimalarial effect of all the listed molecules in […] culture conditions in order to identify a putative lead structure for pharmacological applications.

In data set [2] the test system is P. falciparum developmental stages (asexual). Description: Effect on P. falciparum developmental stages, Giemsa-stained smears. The class given is cell-based, Plasmodium falciparum. The conditions noted are these: 5 μM. As for the experimental part:
Further, in order to assess the effect of potent molecule 5e on the parasite developmental stages (asexual), we treated tightly synchronized ring-stage parasite cultures with 5e at 5 μM concentration and counted the parasites at different developmental stages (rings, trophozoites and schizonts) in Giemsa-stained smears at three time points (36, 44, and 52 h after treatment). The control (untreated) parasite progressed through the first cell cycle (0–48 h), increased in size and density, developed into trophozoites and schizonts and subsequently formed viable merozoites. These merozoites were able to invade fresh RBCs and form new ring-stage parasites. (Fig 4).

The next data set relates to P. falciparum 3D7. The data set is described as follows: SYBR green I-based fluorescence parasite growth assay, CQ sensitive strain. It counts as cell-based, Plasmodium falciparum. The conditions noted are these: Plasmodium falciparum; CQ sensitive strain 3D7; 48 h incubation; read-out: IC50 values ± SE, growth of P. falciparum (3D7). The procedure:
as §1, §2

The target in the next data set is T1, plasmepsin 4 (Plasmodium falciparum, UniProt Q8IM16).
T1 construct: preincubated at the assay pH for 3 minutes to allow conversion from the proenzyme to the mature enzyme form; made in house
The data set is described as follows: Inhibition of plasmepsin 4, chromogenic substrate cleavage assay. It counts as biochemical. The conditions noted are these: tested at 10 to 50 μM. As for the experimental part:
(§3) Synthetic compounds were dissolved in DMSO to make stock solutions at concentrations around 100 μM. Dilutions from these stocks were made to obtain solutions to use for studying inhibition of the plasmepsins 2 and 4 from P. falciparum. Assays of enzymatic activity were typically done using 50 micromolar substrate and 50 nanomolar enzyme at pH 4.5. The protein samples were preincubated at the assay pH for 3 minutes to allow conversion from the proenzyme to the mature enzyme form, then immediately mixed with inhibitor solutions and incubated for a further 5 minutes to permit the enzyme-inhibitor complex to form. Following this, the samples were mixed with samples of the substrate to yield a 50 μM substrate concentration in the final assay solution and immediately placed in a recording spectrophotometer to follow the reaction. The cleavage of the chromogenic substrate yields a shift in absorbance that can be quantified by the decrease in absorbance at 300 nm. Compounds were mixed with the enzymes at concentrations ranging from 10 to 50 μM range and the effect on enzyme activity studied in duplicate assays.
(§4) A second inhibitor concentration was chosen that would yield approximately 30–35% inhibition and a third inhibitor concentration was chosen to yield approximately 65–70% inhibition. The three resulting curves of initial velocity versus substrate concentration were fit simultaneously to the competitive inhibition scheme; this yields values of Vmax, Km, and Ki.
(§5) Plasmepsins, a family of aspartic proteases of malaria parasite, are known to participate in a wide variety of cellular processes essential for parasite survival. […] Similarly, plasmepsin 4 from P. falciparum can be prepared and activated. Catalytic activity of the plasmepsins can be studied by following the change in absorbance at 300 nm as cleavage occur between a Phe and a nitroPhe in the synthetic substrate, Lys-Pro-Ile-Glu-Phe-NO2Phe-Arg-Leu. The compounds listed in Tables 1, 2 and 3 were assayed for inhibition by preincubating with differnt concentrations of the compound with equal aliquots of either plasmepsin 2 or 4 followed by mixing with the assay substrate.

For a further data set, the target named is T2, plasmepsin 2 (Plasmodium falciparum, UniProt P46925).
T2 construct: preincubated at the assay pH for 3 minutes to allow conversion from the proenzyme to the mature enzyme form; made in house
Description: Inhibition of plasmepsin 2, chromogenic substrate cleavage assay. The class given is biochemical. The conditions noted are these: tested at 10 to 50 μM. As for the experimental part: as §3, §4, §5

The subject of the next data set is MCF-7 cell line. The data set is described as follows: MTT-colorimetric cytotoxicity assay. It counts as cell-based. As to conditions: 100, 25 and 6.25 μg mL^-1. The procedure:
Phthalimides were serially diluted in DMSO in a final concentration of 100, 25 and 6.25 μg mL^-1 and evaluated for their % cytotoxicity by using MTT-colorimetric assay on MCF-7 cell line. Cell lines were maintained in RPMI-1640 (Hi-Media, Mumbai) medium supplemented with heat inactivated FCS (10% v/v) and 100 U/mL of streptomycin and were cultured in a humidified 5% CO2 atmosphere at 37°C. 100 μL (~2×10^5) of cells were seeded into wells (per well) on a 96-well plate (Nunc, Maxi Sorp) and incubated for 16 h for adherence. After 16 h, media was aspirated from the wells and the cells were washed with RPMI-1640 without FCS. 75 μL of each compound and control was added to separate wells containing cell lines and incubated at 37°C in humidified 5% CO2 atmosphere for 4 h. After 4 h, media containing the compounds was replaced with 200 μL of normal RPMI-1640 and cells were further incubated for 48 h under same conditions. After 48 h media was replaced by 200 μL of MTT (3-(4, 5-dimethylthiazol-2-yl)-2, 5-diphenyltetrazolium bromide, 0.5 mg/mL of RPMI-1640) and further incubated for 2 h. The formazan crystals were formed and suspended in 100 μL iso-propanol containing 0.06 M HCl and 0.5% SDS. Aliquots were drawn from each well and colour intensity was measured spectrophotometrically in an ELISA plate reader (Biotek, ELx800) at 540 nm. Untreated cells were taken as control with 100% viability and cells without addition of MTT were used as blank. The relative cell viability (%) compared to control cells was calculated by [abs] sample/ [abs] control × 100.
In general terms: Formazan colour is commonly taken as a measure of viable cells.

In a further data set the test system is human erythrocytes. Description: In vitro hemolytic activity. The conditions noted are these: 3.125 to 100 μg/mL, 37°C, 1 h. It counts as cell-based. As for the experimental part:
In vitro hemolytic activity of all synthesized compounds was performed as per reported protocol with slight modifications. In brief, human erythrocytes were collected from Rotary Blood Bank (New Delhi, India) and suspended in phosphate buffer saline (PBS). The suspension (2% hemotocrit) was incubated with different concentrations (3.125 to 100 μg/mL) of the entire compound series at 37°C for 1 h. After 1 h, erythrocytes were pelleted at 3000 g for 10 min (Remi, R-8C/BL) at 4°C. The supernatant was collected and OD450 was determined spectrophotometrically (Biotek, ELx800 UV spectrophotometer) using PBS as a negative control and Triton X-100 for completely lysing the cells. The percent hemolysis was calculated using the following formula: Percent hemolysis = […]. The percent hemolysis was plotted against concentration of compounds for determining the dose cytotoxic to erythrocytes.

T2 sequence (P46925 125-453): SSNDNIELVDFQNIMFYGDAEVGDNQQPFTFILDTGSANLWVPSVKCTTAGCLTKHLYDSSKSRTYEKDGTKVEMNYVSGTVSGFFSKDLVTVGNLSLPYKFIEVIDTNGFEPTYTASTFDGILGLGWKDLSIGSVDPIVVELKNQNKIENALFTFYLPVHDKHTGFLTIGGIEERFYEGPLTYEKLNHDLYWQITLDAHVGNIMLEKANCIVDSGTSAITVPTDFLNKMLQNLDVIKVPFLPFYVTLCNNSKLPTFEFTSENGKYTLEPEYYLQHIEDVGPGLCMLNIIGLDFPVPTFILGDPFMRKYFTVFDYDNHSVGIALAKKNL
T1 sequence (Q8IM16 122-449): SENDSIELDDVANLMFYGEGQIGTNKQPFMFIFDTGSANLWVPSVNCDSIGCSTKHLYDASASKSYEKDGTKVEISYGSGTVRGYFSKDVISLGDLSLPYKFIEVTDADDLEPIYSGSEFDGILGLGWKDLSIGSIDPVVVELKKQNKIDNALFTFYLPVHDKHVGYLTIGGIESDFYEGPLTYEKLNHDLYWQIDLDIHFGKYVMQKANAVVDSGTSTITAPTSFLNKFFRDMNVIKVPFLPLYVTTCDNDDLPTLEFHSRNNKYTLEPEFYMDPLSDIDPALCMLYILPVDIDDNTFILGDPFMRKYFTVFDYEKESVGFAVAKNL

In the case of `CC(C)(C)OC(=O)N[C@H](Cc1ccccc1)[C@@H](O)CN1CCC(N2CCCCC2)CC1` [Compound 5e], the values for the 50% inhibitory concentration (IC50) (in data set [1]; with P. falciparum 3D7) were 2.99 µM and 1.16 ± 0.04 µM, respectively. In data set [2] (at 52 h), the “total parasitemia compared with the control set” value was “lower total parasitemia”. Besides, the “effect on parasite developmental stages” value in data set [2] (synchronized ring-stage cultures, 36, 44 and 52 h after treatment) is given as “developmental arrest in the transition from early to late schizont”. For the same compound, the “inhibition of plasmepsin 4 (in words)” value against plasmepsin 4 is given as “did not inhibit”. Besides, the “inhibition of plasmepsin 2 (in words)” value on plasmepsin 2 was “did not inhibit”. Also, the “cytotoxic effect on MCF7 cell line (in words)” value (from here on “cytotoxic effect”) in the data set with MCF-7 cell line was “low cytotoxic effect; also recorded: less toxic”. In addition, the “hemolysis of human erythrocytes (in words)” value in the data set on human erythrocytes is given as “lower hemolysis”.

With `O=C(N[C@H](Cc1ccccc1)[C@@H](O)CN1CCN(Cc2ccc(F)cc2)CC1)[C@H](Cc1ccccc1)N1C(=O)c2ccccc2C1=O` [Compound 6j], the melting point fell in the range of 121 to 123 °C. Further, in data set [1], the IC50 is 3.6 µM. Moreover, the half-maximal inhibitory concentration (IC50) in the data set on P. falciparum 3D7 was found to be 1.33 ± 0.04 µM. Moreover, the “cytotoxic effect” value in the data set on MCF-7 cell line is reported as “low cytotoxic effect”. Further, in the data set on human erythrocytes, the “hemolysis of human erythrocytes (in words)” value was “lower hemolysis”.

For `CC(C)[C@@H](C(=O)N[C@H](Cc1ccccc1)[C@@H](O)CN1CCN(Cc2ccc(Br)cc2)CC1)N1C(=O)c2ccccc2C1=O` [Compound 6o], the values for the IC50 (in data set [1]; in the data set on P. falciparum 3D7) were 3.01 µM and 1.25 ± 0.08 µM, respectively. Moreover, the “cytotoxic effect” value with MCF-7 cell line is reported as “low cytotoxic effect”.

For the origin of these results see article PMC4621027, “Hydroxyethylamine Based Phthalimides as New Class of Plasmepsin Hits: Design, Synthesis and Antimalarial Evaluation” (PLoS ONE, 2015).
